Test results published in patent US20160067232A1, “METHODS FOR TREATING A STROKE-RELATED SENSORIMOTOR IMPAIRMENT USING AMINOPYRIDINES” (Acorda Therapeutics, Inc., priority 2011, published 2016).
Where “and” joins values, the source holds several entries; their conditions need not be identical. Identical values can stand only once.

Tests used:
[1] = test system: rats with middle cerebral artery occlusion (MCAO); assay: Cylinder test, overall asymmetry (%), MCAO rats (Example 2); type: in vivo, Sprague Dawley rat
Experimental: Dosing and Treatment: Rats were treated in accordance with the dosing schedule shown in Tables 2A, 2B, 3 and FIG. 2, with each Phase being a two week period of time. A solution of 4-AP was used in this experiment. Dosing was started at 4 weeks after ischemic event. 4-aminopyridine was dissolved in water for injection (WFI, Cellgro) and sterile filtered. […] Vehicle control treatment was WFI delivered at 2 mL/kg by gastric gavage. […] Starting on day 30 after MCAO (Day 30, start of phase 1), the animals received gavage dosing of solutions (2 mL/kg) approximately 12 hours apart, for a total of five doses. The same schedule was repeated with different treatment on Day 44 and Day 58 for phase 2 and 3 of the study, respectively. Animals were not treated during the 10 days between phases (washout period). Treatment groups: Dosing was started 4 weeks after MCAO surgery. During these 4 weeks, weekly behavioral assessments, as defined below, were performed. Two dose levels of 4-AP plus vehicle control were assessed, with treatment starting at 4 weeks after ischemic event. […] Animals were given the first dose and behavioral assessments were performed starting 60 minutes after dosing. Animals then received the second dose that day at the appropriate time and b.i.d (preferably every 12 hours) thereafter for 2 more days (3 total days of dosing, 5 total doses). One hour after the 5th dose, animals were subjected to behavioral assessments as defined below. Following the final behavioral assessment, drug was withdrawn for 10 or 11 days, behavior was re-assessed, and then animals were re-challenged with a cross-over treatment (Phase 2 of Table 2B) as described in Tables 2A, 2B and 3, followed by the same behavioral testing and dosing regimen. This cross-over was repeated one more time as well (Phase 3 of Table 2B) (see FIG. 2). Cylinder Test: Evaluation was performed at Day −1 (pre-operation), Day 7, Day 21, Day 30, Day 32, Day 44, Day 46, Day 58, Day 60. This test assessed limb use asymmetry. Rats were placed in a transparent cylinder (20 cm in diameter and 30 cm in height) for 3-6 minutes. A mirror was placed behind the cylinder to determine forelimb movements when animal was turned away from the camera. […] Simultaneous use of both left and right forelimbs while contacting the wall during a full rear was also scored. A total number of 20 forelimb placings were counted during a trial. Data was expressed in terms of percent use of the non-impaired and or impaired forelimb relative to the total number of limb use observations for wall movements.

[2] = test system: rats with middle cerebral artery occlusion (MCAO); assay: Hindlimb placing test, MCAO rats, dose escalation study (Example 17); type: in vivo, Sprague Dawley rat
Description: Limb Placing: Evaluated at Day −1 (pre-operation), Day 1, Day 7, Day 14, Day 21, Day 28, Day 30, Day 32, Day 42, Day 44, Day 46, Day 56, Day 58, Day 60. The limb placing tests were divided into forelimb and hindlimb tests. For the forelimb-placing test, the examiner held the rat close to a tabletop and scored the rat's ability to place the forelimb on the tabletop in response to whisker, visual, tactile, or proprioceptive stimulation. Similarly, for the hindlimb placing test, the examiner assessed the rat's ability to place the hindlimb on the tabletop in response to tactile and proprioceptive stimulation. Together, these tests reflect function and recovery in the sensorimotor systems (De Ryck et al., Brain Res 1992; 573:44-60). Separate sub-scores were obtained for each mode of sensory input and added to give total scores (for the forelimb placing test: 0=normal, 12=maximally impaired; for the hindlimb placing test: 0=normal; 6=maximally impaired). Scores were given in half-point increments (see below). Typically, there is a slow and steady recovery of limb placing behavior during the first month after stroke.
Hindlimb placing test (0-6): • tactile placing (dorsal (0-2), lateral (0-2)) • proprioceptive placing (0-2).
For each subtest, animals are scored as followed: • 0.0=immediate response • 0.5=response within 2 seconds • 1.0=response of 2-3 seconds • 1.5=response of >3 seconds • 2.0=no response
4-AP was evaluated for its ability to promote functional sensorimotor improvement following ischemic stroke in rats with stable motor deficits at times remote from their ischemic events. The animal model of ischemic stroke, i.e., the MCAO model, used in this example is the same as the animal model described in Example 2.
In the MCAO model recovery begins to plateau by 4 weeks after MCAO, at which time there are still measurable deficits in sensorimotor function. However, 4 weeks after MCAO there may still be slow continued endogenous recovery.
4-aminopyridine was dissolved in water for injection (WFI, Cellgro) and sterile filtered. Solutions of 0.25 mg/mL, 0.5 mg/mL and 1.0 mg/mL of 4-aminopyridine were delivered by gastric gavage at 2 mL/kg for final doses of 0.5 mg/kg, 1 mg/kg or 2.0 mg/kg respectively. Vehicle control treatment was WFI delivered at 2 mL/kg by gastric gavage. Starting on Day 56 after MCAO, animals received gastric gavage of solutions (2 mL/kg) approximately 12 hours apart. The vehicle control group was treated with water for all doses on Days 56-65. For the treated group, six doses of 4-aminopyridine at 0.5 mg/kg were delivered over Days 56-59, followed by six doses at 1.0 mg/kg over Days 59-62 and six doses at 2.0 mg/kg over Days 62-65. Animals in all groups were not treated during Days 66-70. p.o.=par oral. […]

Nc1ccncc1 [4-aminopyridine]
Cylinder Test Score (Overall Asymmetry (%)) Group 2, D30 ([1]; Group 2, D30, treatment phase 1 (low-dose 4-AP), individual animals and Mean (N=15), listed as 4-AP): 0.00% and 75.00% and 23.33% and 20.00% and 6.90% | Cylinder Test Score (Overall Asymmetry (%)) Group 2, D32 ([1]; Group 2, D32, treatment phase 1 (low-dose 4-AP), individual animals and Mean (N=15), listed as 4-AP): 33.33% and 16.00% and 20.00% and 50.00% and 0.00% | Cylinder Test Score (Overall Asymmetry (%)) Group 2, D58 ([1]; Group 2, D58, treatment phase 3 (high-dose 4-AP), individual animals and Mean (N=12), listed as 4-AP): 50.00% and 30.00% and 88.00% and 33.33% | Cylinder Test Score (Overall Asymmetry (%)) Group 2, D60 ([1]; Group 2, D60, treatment phase 3 (high-dose 4-AP), individual animals and Mean (N=14), listed as 4-AP): 64.00% and 20.00% and 10.00% and 0.00% (3×) and −100.00% (2×) | Cylinder Test Score (Overall Asymmetry (%)) Group 3, D44 ([1]; Group 3, D44, treatment phase 2 (high-dose 4-AP), individual animals and Mean (N=13), listed as 4-AP): 40.00% and 20.00% and 100.00% and 0.00% | Cylinder Test Score (Overall Asymmetry (%)) Group 3, D46 ([1]; Group 3, D46, treatment phase 2 (high-dose 4-AP), individual animals and Mean (N=13), listed as 4-AP): 50.00% and −60.00% and 0.00% and 6.90% | Cylinder Test Score (Overall Asymmetry (%)) Group 3, D58 ([1]; Group 3, D58, treatment phase 3 (low-dose 4-AP), individual animals and Mean (N=15), listed as 4-AP): 0.00% (2×) and 5.00% | Cylinder Test Score (Overall Asymmetry (%)) Group 3, D60 ([1]; Group 3, D60, treatment phase 3 (low-dose 4-AP), individual animals and Mean (N=15), listed as 4-AP): −25.00% and 0.00% (2×) and 16.00% | Effect on body symmetry and coordination, cylinder test (FIG. 7) ([1]; reversible and dose-dependent): effective to improve body symmetry and coordination | Hind limb placing score compared to vehicle ([2]; 0.5 mg/kg b.i.d. p.o., Day 59): improved with the low dose but did not reach significance | Hind limb placing compared to vehicle ([2]; 1 mg/kg b.i.d. p.o., Day 62, p<0.05): measureable improvement | Hind limb function compared to vehicle ([2]; 2 mg/kg b.i.d. p.o., Day 65, p<0.001): significant improvements | Hind limb score after treatment withdrawn for 5 days ([2]; Day 70, p<0.05): remained greater than the vehicle treated group
